# Test results: PubChem BioAssay (NCI)
#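 GI50 marks 50% less growth. TGI: total growth inhibition.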
# Key:
# Assay in all cases: NCI-60 cell line screen, 384-well format
# SF-295 CNS = test system: SF-295 CNS
# IGROV1 ovarian = test system: IGROV1 ovarian
# SF-268 CNS = test system: SF-268 CNS
# CAKI-1 renal = test system: CAKI-1 renal
# TK-10 renal = test system: TK-10 renal
# SK-MEL-2 melanoma = test system: SK-MEL-2 melanoma
# NCI-H460 NSCLC = test system: NCI-H460 NSCLC
# K-562 leukemia = test system: K-562 leukemia
# SF-539 CNS = test system: SF-539 CNS
# HOP-62 NSCLC = test system: HOP-62 NSCLC
# BT-549 breast = test system: BT-549 breast
# OVCAR-3 ovarian = test system: OVCAR-3 ovarian
# OVCAR-8 ovarian = test system: OVCAR-8 ovarian
# SR leukemia = test system: SR leukemia
# A549 NSCLC = test system: A549 NSCLC
# UACC-257 melanoma = test system: UACC-257 melanoma
# SK-OV-3 ovarian = test system: SK-OV-3 ovarian
# T-47D breast = test system: T-47D breast
# HCT-116 colon = test system: HCT-116 colon
# CCRF-CEM leukemia = test system: CCRF-CEM leukemia
# MDA-MB-231 breast = test system: MDA-MB-231 breast
# HT29 colon = test system: HT29 colon
# NCI-H522 lung = test system: NCI-H522 lung
# NCI-H322M lung = test system: NCI-H322M lung
# NCI/ADR-RES ovarian = test system: NCI/ADR-RES ovarian
# SW-620 colon = test system: SW-620 colon
# ACHN renal = test system: ACHN renal
# EKVX NSCLC = test system: EKVX NSCLC
# RXF 393 renal = test system: RXF 393 renal
# MOLT-4 leukemia = test system: MOLT-4 leukemia
# OVCAR-5 ovarian = test system: OVCAR-5 ovarian
# PC-3 prostate = test system: PC-3 prostate
# 786-0 renal = test system: 786-0 renal
# SNB-19 CNS = test system: SNB-19 CNS
# SN12C renal = test system: SN12C renal
# UACC-62 melanoma = test system: UACC-62 melanoma
# HS 578T breast = test system: HS 578T breast
# SK-MEL-5 melanoma = test system: SK-MEL-5 melanoma
# M14 melanoma = test system: M14 melanoma
# MCF7 breast = test system: MCF7 breast
# UO-31 renal = test system: UO-31 renal
# NCI-H226 lung = test system: NCI-H226 lung
# KM12 colon = test system: KM12 colon
# MDA-MB-435 melanoma = test system: MDA-MB-435 melanoma
# LOX IMVI melanoma = test system: LOX IMVI melanoma
# SK-MEL-28 melanoma = test system: SK-MEL-28 melanoma
# COLO 205 colon = test system: COLO 205 colon
structure (smiles),measurement,setting,value
COCc1c(-c2cc3cc(C)cc(OC)c3s2)c2c(N)ncnn2c1CN1CCNC(=O)C1,GI50,SF-295 CNS,18.2 µM
same,TGI,SF-295 CNS,> 100 µM
same,GI50,IGROV1 ovarian,4.19 µM
same,TGI,IGROV1 ovarian,36.8 µM
same,GI50,SF-268 CNS,8.67 µM
same,TGI,SF-268 CNS,> 81.6 µM
same,GI50,CAKI-1 renal,3.41 µM
same,TGI,CAKI-1 renal,15.1 µM
same,GI50,TK-10 renal,7.97 µM
same,TGI,TK-10 renal,70.3 µM
same,GI50,SK-MEL-2 melanoma,4.38 µM
same,TGI,SK-MEL-2 melanoma,13.6 µM
same,GI50,NCI-H460 NSCLC,4.62 µM
same,TGI,NCI-H460 NSCLC,> 96.2 µM
same,GI50,K-562 leukemia,20.1 µM
same,TGI,K-562 leukemia,> 100 µM
same,GI50,SF-539 CNS,6.08 µM
same,TGI,SF-539 CNS,> 58.3 µM
same,GI50,HOP-62 NSCLC,12.8 µM
same,TGI,HOP-62 NSCLC,> 100 µM
same,GI50,BT-549 breast,0.385 µM
same,TGI,BT-549 breast,5.45 µM
same,GI50,OVCAR-3 ovarian,5.38 µM
same,TGI,OVCAR-3 ovarian,> 75.2 µM
same,GI50,OVCAR-8 ovarian,17.8 µM
same,TGI,OVCAR-8 ovarian,> 100 µM
same,GI50,SR leukemia,3.97 µM
same,TGI,SR leukemia,12.9 µM
same,GI50,A549 NSCLC,5.49 µM
same,TGI,A549 NSCLC,> 100 µM
same,GI50,UACC-257 melanoma,29.9 µM
same,TGI,UACC-257 melanoma,> 100 µM
same,GI50,SK-OV-3 ovarian,2.4 µM
same,TGI,SK-OV-3 ovarian,8.99 µM
same,GI50,T-47D breast,15.1 µM
same,TGI,T-47D breast,> 94.7 µM
same,GI50,HCT-116 colon,7.4 µM
same,TGI,HCT-116 colon,> 100 µM
same,GI50,CCRF-CEM leukemia,5.68 µM
same,TGI,CCRF-CEM leukemia,> 52.5 µM
same,GI50,MDA-MB-231 breast,5.63 µM
same,TGI,MDA-MB-231 breast,> 72.1 µM
same,GI50,HT29 colon,12 µM
same,TGI,HT29 colon,> 100 µM
same,GI50,NCI-H522 lung,3.66 µM
same,TGI,NCI-H522 lung,30.6 µM
same,GI50,NCI-H322M lung,3.89 µM
same,TGI,NCI-H322M lung,36.8 µM
same,GI50,NCI/ADR-RES ovarian,> 100 µM
same,TGI,NCI/ADR-RES ovarian,> 100 µM
same,GI50,SW-620 colon,3.27 µM
same,TGI,SW-620 colon,> 23.1 µM
same,GI50,ACHN renal,6.15 µM
same,TGI,ACHN renal,> 100 µM
same,GI50,EKVX NSCLC,5.72 µM
same,TGI,EKVX NSCLC,> 69.8 µM
same,GI50,RXF 393 renal,1.19 µM
same,TGI,RXF 393 renal,8.32 µM
same,GI50,MOLT-4 leukemia,2.68 µM
same,TGI,MOLT-4 leukemia,8.5 µM
same,GI50,OVCAR-5 ovarian,10.3 µM
same,TGI,OVCAR-5 ovarian,> 79.5 µM
same,GI50,PC-3 prostate,23.2 µM
same,TGI,PC-3 prostate,> 100 µM
same,GI50,786-0 renal,14.2 µM
same,TGI,786-0 renal,> 93.2 µM
same,GI50,SNB-19 CNS,18.5 µM
same,TGI,SNB-19 CNS,> 100 µM
same,GI50,SN12C renal,7.95 µM
same,TGI,SN12C renal,> 73.6 µM
same,GI50,UACC-62 melanoma,6.36 µM
same,TGI,UACC-62 melanoma,37 µM
same,GI50,HS 578T breast,3.76 µM
same,TGI,HS 578T breast,22.4 µM
same,GI50,SK-MEL-5 melanoma,7.29 µM
same,TGI,SK-MEL-5 melanoma,31.3 µM
same,GI50,M14 melanoma,4.75 µM
same,TGI,M14 melanoma,41 µM
same,GI50,MCF7 breast,5.56 µM
same,TGI,MCF7 breast,> 100 µM
same,GI50,UO-31 renal,9.39 µM
same,TGI,UO-31 renal,> 100 µM
same,GI50,NCI-H226 lung,1.26 µM
same,TGI,NCI-H226 lung,21.7 µM
same,GI50,KM12 colon,9.87 µM
same,TGI,KM12 colon,> 100 µM
same,GI50,MDA-MB-435 melanoma,11.8 µM
same,TGI,MDA-MB-435 melanoma,72.2 µM
same,GI50,LOX IMVI melanoma,5.57 µM
same,TGI,LOX IMVI melanoma,25.6 µM
same,GI50,SK-MEL-28 melanoma,28.7 µM
same,TGI,SK-MEL-28 melanoma,> 100 µM
same,GI50,COLO 205 colon,12 µM
same,TGI,COLO 205 colon,> 100 µM
